Experiments:
amyloid plaques = test: Autoradiography using postmortem brain section of patient with Alzheimer's disease (Example 7); type: binding, human (Alzheimer's disease patient); settings: brain section (temporal lobe) of Alzheimer's disease patient; 0.37 MBq/100 μL, 1 hour
Procedure: A postmortem autopsy brain section (temporal lobe) of a patient with Alzheimer's disease was incubated together with each of [^18F]E3, [^18F]D3, [^18F]E1, and [^18F]E2 (0.37 MBq/100 μL each) at room temperature for 1 hour. The resultant was washed with a 50 volume % ethanol aqueous solution (2 minutes×2) and water (2 minutes×2), and after drying, the section was contacted with BAS imaging plate (from Fujifilm Corporation) for 1.5 hours. The image of autoradiography was obtained using BAS5000 scanner system (from Fujifilm Corporation).
A section adjacent to the brain section used was immunostained in the following manner.
First, a paraffin-embedded brain section of the Alzheimer's disease patient (temporal lobe, 6 μm in thickness) was incubated with xylene (15 minutes×2), ethanol (1 minute×2), a 90 volume % ethanol aqueous solution (1 minute×2), and a 70 volume % ethanol aqueous solution (1 minute×1) in that order for complete deparaffinization, and then washed in water (2.5 minutes×2). Thereafter, the section was subjected to autoclave treatment for 15 minutes in 0.01 mol/L citrate buffer solution (pH 6.0). The resultant was incubated in PBS-Tween20 (5 minutes×2), and a mouse anti-Aβ1-42 primary monoclonal antibody (from Wako Pure Chemical Industries Ltd.) was then added thereto, which was then incubated at room temperature overnight. The resultant was incubated in PBS-Tween20 (2 minutes×3), and a biotin-goat anti-mouse IgG (from Funakoshi Co., Ltd.) was then added thereto, which was then incubated at room temperature for 1 hour. The resultant was incubated in PBS-Tween20 (5 minutes×3), and a streptavidin-peroxidase complex (from Funakoshi Co., Ltd.) was added thereto, which was then incubated at room temperature for 30 minutes. In addition, the resultant was incubated in PBS-Tween20 (2 minutes×3); 3,3′-diaminobenzidine was added thereto, which was then incubated at room temperature for 30 minutes; and after washing with water, the section was observed under a microscope to provide an immunostained image (FIG. 10).

[1] = In vivo radioactivity distribution experiment (Example 8); settings: ddY mice, tail vein, SD in parenthesis
Procedure: Through the tail vein of ddY mice (male, 5 week-old) was injected each of a 10 volume % ethanol-containing saline solution of [^18F]E3 (45.4 kBq, 100 μL), a 10 volume % ethanol-containing saline solution of [^18F]D3 (38.2 kBq, 100 μL), a 10 volume % ethanol-containing saline solution of [^18F]E1 (45.1 kBq, 100 μL), and a 10 volume % ethanol-containing saline solution of [^18F]E2 (40.6 kBq, 100 μL). Five mice were used for each group and sacrificed 2, 10, 30, and 60 minutes after administration to remove major organs. The blood and organs were weighed and further measured for radioactivity using a γ counter. The amount of radioactivity per unit mass was measured in each organ to evaluate radioactivity distribution.

Molecule: CNc1ccc(-c2cnc3ccc(OCC[18F])cc3n2)cc1 [[^18F]E2, 4-(7-(2-[^18F]Fluoroethoxy)quinoxalin-2-yl)-N-methylaniline]
- visualization of gray matter / amyloid plaques by autoradiography (amyloid plaques): did not visualize the gray matter but rather strongly visualized the white matter
- Radioactivity Amount, Blood ([1]; 2 min. after): 3.37 (0.46) % injected dose/g
- Radioactivity Amount, Blood ([1]; 10 min. after): 3.83 (1.24) % injected dose/g
- Radioactivity Amount, Blood ([1]; 30 min. after): 3.10 (0.34) % injected dose/g
- Radioactivity Amount, Blood ([1]; 60 min. after): 3.40 (0.32) % injected dose/g
- Radioactivity Amount, Bone ([1]; 2 min. after): 1.86 (0.53) % injected dose/g
- Radioactivity Amount, Bone ([1]; 10 min. after): 1.91 (0.54) % injected dose/g
- Radioactivity Amount, Bone ([1]; 30 min. after): 2.07 (3.97) % injected dose/g
- Radioactivity Amount, Bone ([1]; 60 min. after): 2.36 (1.16) % injected dose/g
- Radioactivity Amount, Brain ([1]; 2 min. after): 5.96 (0.48) % injected dose/g
- Radioactivity Amount, Brain ([1]; 10 min. after): 3.77 (0.40) % injected dose/g
- Radioactivity Amount, Brain ([1]; 30 min. after): 2.18 (0.22) % injected dose/g
- Radioactivity Amount, Brain ([1]; 60 min. after): 1.91 (0.15) % injected dose/g
- Radioactivity Amount, Heart ([1]; 2 min. after): 7.42 (0.53) % injected dose/g
- Radioactivity Amount, Heart ([1]; 10 min. after): 4.41 (0.17) % injected dose/g
- Radioactivity Amount, Heart ([1]; 30 min. after): 8.53 (12.0) % injected dose/g
- Radioactivity Amount, Heart ([1]; 60 min. after): 3.92 (0.64) % injected dose/g
- Radioactivity Amount, Intestine ([1]; 2 min. after): 3.46 (0.75) % injected dose/g
- Radioactivity Amount, Intestine ([1]; 10 min. after): 12.5 (2.77) % injected dose/g
- Radioactivity Amount, Intestine ([1]; 30 min. after): 20.3 (2.55) % injected dose/g
- Radioactivity Amount, Intestine ([1]; 60 min. after): 22.1 (2.95) % injected dose/g
- Radioactivity Amount, Kidney ([1]; 2 min. after): 11.8 (2.51) % injected dose/g
- Radioactivity Amount, Kidney ([1]; 10 min. after): 7.55 (0.36) % injected dose/g
- Radioactivity Amount, Kidney ([1]; 30 min. after): 3.92 (0.45) % injected dose/g
- Radioactivity Amount, Kidney ([1]; 60 min. after): 3.12 (0.41) % injected dose/g
- Radioactivity Amount, Liver ([1]; 2 min. after): 6.84 (1.50) % injected dose/g
- Radioactivity Amount, Liver ([1]; 10 min. after): 11.7 (0.58) % injected dose/g
- Radioactivity Amount, Liver ([1]; 30 min. after): 7.95 (1.32) % injected dose/g
- Radioactivity Amount, Liver ([1]; 60 min. after): 6.95 (0.68) % injected dose/g
- Radioactivity Amount, Lung ([1]; 2 min. after): 6.71 (0.24) % injected dose/g
- Radioactivity Amount, Lung ([1]; 10 min. after): 4.98 (0.56) % injected dose/g
- Radioactivity Amount, Lung ([1]; 30 min. after): 3.34 (0.55) % injected dose/g
- Radioactivity Amount, Lung ([1]; 60 min. after): 4.06 (0.99) % injected dose/g
- Radioactivity Amount, Pancreas ([1]; 2 min. after): 5.42 (0.13) % injected dose/g
- Radioactivity Amount, Pancreas ([1]; 10 min. after): 4.91 (0.95) % injected dose/g
- Radioactivity Amount, Pancreas ([1]; 30 min. after): 2.60 (0.25) % injected dose/g
- Radioactivity Amount, Pancreas ([1]; 60 min. after): 2.73 (0.31) % injected dose/g
- Radioactivity Amount, Spleen ([1]; 2 min. after): 2.71 (0.44) % injected dose/g
- Radioactivity Amount, Spleen ([1]; 10 min. after): 4.53 (0.62) % injected dose/g
- Radioactivity Amount, Spleen ([1]; 30 min. after): 3.33 (0.66) % injected dose/g
- Radioactivity Amount, Spleen ([1]; 60 min. after): 3.17 (0.62) % injected dose/g
- Radioactivity Amount, Stomach* ([1]; 2 min. after): 1.13 (0.18) % injected dose per organ
- Radioactivity Amount, Stomach* ([1]; 10 min. after): 2.11 (0.55) % injected dose per organ
- Radioactivity Amount, Stomach* ([1]; 30 min. after): 1.56 (0.34) % injected dose per organ
- Radioactivity Amount, Stomach* ([1]; 60 min. after): 2.73 (2.44) % injected dose per organ

Molecule: 4-(7-(2-[^18F]Fluoroethoxy)quinoxalin-2-yl)-N,N-dimethylaniline [[^18F]E3]
- visualization of gray matter / amyloid plaques by autoradiography (amyloid plaques): amyloid plaques were visualized
- Radioactivity Amount, Blood ([1]; 2 min. after): 2.26 (0.21) % injected dose/g
- Radioactivity Amount, Blood ([1]; 10 min. after): 1.91 (0.68) % injected dose/g
- Radioactivity Amount, Blood ([1]; 30 min. after): 2.42 (0.17) % injected dose/g
- Radioactivity Amount, Blood ([1]; 60 min. after): 2.38 (0.25) % injected dose/g
- Radioactivity Amount, Bone ([1]; 2 min. after): 2.45 (0.43) % injected dose/g
- Radioactivity Amount, Bone ([1]; 10 min. after): 2.20 (0.09) % injected dose/g
- Radioactivity Amount, Bone ([1]; 30 min. after): 2.10 (0.39) % injected dose/g
- Radioactivity Amount, Bone ([1]; 60 min. after): 2.02 (0.36) % injected dose/g
- Radioactivity Amount, Brain ([1]; 2 min. after): 5.78 (0.60) % injected dose/g
- Radioactivity Amount, Brain ([1]; 10 min. after): 3.82 (0.33) % injected dose/g
- Radioactivity Amount, Brain ([1]; 30 min. after): 1.85 (0.09) % injected dose/g
- Radioactivity Amount, Brain ([1]; 60 min. after): 1.48 (0.07) % injected dose/g
- Radioactivity Amount, Heart ([1]; 2 min. after): 6.12 (0.79) % injected dose/g
- Radioactivity Amount, Heart ([1]; 10 min. after): 3.48 (0.56) % injected dose/g
- Radioactivity Amount, Heart ([1]; 30 min. after): 2.43 (0.12) % injected dose/g
- Radioactivity Amount, Heart ([1]; 60 min. after): 2.22 (0.08) % injected dose/g
- Radioactivity Amount, Intestine ([1]; 2 min. after): 3.24 (0.43) % injected dose/g
- Radioactivity Amount, Intestine ([1]; 10 min. after): 7.95 (1.28) % injected dose/g
- Radioactivity Amount, Intestine ([1]; 30 min. after): 16.2 (1.71) % injected dose/g
- Radioactivity Amount, Intestine ([1]; 60 min. after): 17.9 (3.64) % injected dose/g
- Radioactivity Amount, Kidney ([1]; 2 min. after): 8.65 (0.88) % injected dose/g
- Radioactivity Amount, Kidney ([1]; 10 min. after): 5.19 (0.88) % injected dose/g
- Radioactivity Amount, Kidney ([1]; 30 min. after): 3.30 (0.27) % injected dose/g
- Radioactivity Amount, Kidney ([1]; 60 min. after): 3.51 (1.21) % injected dose/g
- Radioactivity Amount, Liver ([1]; 2 min. after): 11.9 (1.35) % injected dose/g
- Radioactivity Amount, Liver ([1]; 10 min. after): 11.7 (0.80) % injected dose/g
- Radioactivity Amount, Liver ([1]; 30 min. after): 7.11 (1.56) % injected dose/g
- Radioactivity Amount, Liver ([1]; 60 min. after): 5.30 (0.82) % injected dose/g
- Radioactivity Amount, Lung ([1]; 2 min. after): 5.74 (0.48) % injected dose/g
- Radioactivity Amount, Lung ([1]; 10 min. after): 4.02 (0.32) % injected dose/g
- Radioactivity Amount, Lung ([1]; 30 min. after): 2.80 (0.15) % injected dose/g
- Radioactivity Amount, Lung ([1]; 60 min. after): 2.20 (0.14) % injected dose/g
- Radioactivity Amount, Pancreas ([1]; 2 min. after): 6.82 (0.80) % injected dose/g
- Radioactivity Amount, Pancreas ([1]; 10 min. after): 3.51 (0.37) % injected dose/g
- Radioactivity Amount, Pancreas ([1]; 30 min. after): 2.31 (0.19) % injected dose/g
- Radioactivity Amount, Pancreas ([1]; 60 min. after): 1.60 (0.18) % injected dose/g
- Radioactivity Amount, Spleen ([1]; 2 min. after): 3.67 (0.40) % injected dose/g
- Radioactivity Amount, Spleen ([1]; 10 min. after): 2.89 (0.37) % injected dose/g
- Radioactivity Amount, Spleen ([1]; 30 min. after): 2.31 (0.21) % injected dose/g
- Radioactivity Amount, Spleen ([1]; 60 min. after): 1.74 (0.05) % injected dose/g
- Radioactivity Amount, Stomach* ([1]; 2 min. after): 1.07 (0.20) % injected dose per organ
- Radioactivity Amount, Stomach* ([1]; 10 min. after): 2.54 (0.88) % injected dose per organ
- Radioactivity Amount, Stomach* ([1]; 30 min. after): 2.02 (0.63) % injected dose per organ
- Radioactivity Amount, Stomach* ([1]; 60 min. after): 1.42 (0.22) % injected dose per organ

Molecule: Nc1ccc(-c2cnc3ccc(OCC[18F])cc3n2)cc1 [[^18F]E1, 4-(7-(2-[^18F]Fluoroethoxy)quinoxalin-2-yl)aniline]
- visualization of gray matter / amyloid plaques by autoradiography (amyloid plaques): did not visualize the gray matter but rather strongly visualized the white matter
- Radioactivity Amount, Liver ([1]; 2 min. after): 9.18 (1.45) % injected dose/g
- Radioactivity Amount, Liver ([1]; 10 min. after): 12.1 (1.82) % injected dose/g
- Radioactivity Amount, Liver ([1]; 30 min. after): 8.76 (1.01) % injected dose/g
- Radioactivity Amount, Liver ([1]; 60 min. after): 6.52 (0.93) % injected dose/g
